Assay results as given in the NIST ThermoML archive (doi:10.1007/s10765-006-0100-z).
Numbers after ± are expanded uncertainties.

Assays:
[1] = xn = mol fraction of the nth substance listed; conditions: 101 kPa, Liquid; for mass density: Vibrating tube method
[2] = 101 kPa, Liquid; for mass density: Vibrating tube method

CC(C)(C)Cl [2-chloro-2-methylpropane] + C1CCOCC1
[1]
Conditions	kinematic viscosity [m2/s]	mass density [kg/m3]
298.15 K, x2 = 0	5.68e-07 ± 8.2e-09	836.45 ± 2
298.15 K, x2 = 0.0324	–	838.08 ± 2
298.15 K, x2 = 0.0614	5.84e-07 ± 8.4e-09	–
298.15 K, x2 = 0.1075	5.96e-07 ± 8.5e-09	–
298.15 K, x2 = 0.1086	–	842.07 ± 2
298.15 K, x2 = 0.2097	–	847.11 ± 2
298.15 K, x2 = 0.2173	6.27e-07 ± 8.9e-09	–
298.15 K, x2 = 0.2891	–	851.05 ± 2
298.15 K, x2 = 0.3205	6.57e-07 ± 9.3e-09	–
298.15 K, x2 = 0.42	6.88e-07 ± 9.6e-09	–
298.15 K, x2 = 0.4276	–	857.41 ± 2
298.15 K, x2 = 0.496	–	860.32 ± 2
298.15 K, x2 = 0.5176	7.2e-07 ± 1e-08	–
298.15 K, x2 = 0.6107	–	864.98 ± 2
298.15 K, x2 = 0.6155	7.54e-07 ± 1e-08	–
298.15 K, x2 = 0.6483	–	866.46 ± 2
298.15 K, x2 = 0.7156	7.91e-07 ± 1.1e-08	–
298.15 K, x2 = 0.8093	–	872.39 ± 2
298.15 K, x2 = 0.8277	8.35e-07 ± 1.1e-08	–
298.15 K, x2 = 0.8606	–	874.22 ± 2
298.15 K, x2 = 0.9097	8.7e-07 ± 1.2e-08	–
298.15 K, x2 = 0.954	–	877.25 ± 2
298.15 K, x2 = 0.9547	8.89e-07 ± 1.2e-08	–
313.15 K, x2 = 0	4.77e-07 ± 7.1e-09	818.31 ± 2
313.15 K, x2 = 0.0451	4.87e-07 ± 7.2e-09	–
313.15 K, x2 = 0.0584	–	821.7 ± 2
313.15 K, x2 = 0.0875	–	823.35 ± 2
313.15 K, x2 = 0.0887	4.97e-07 ± 7.4e-09	–
313.15 K, x2 = 0.1943	–	829.15 ± 2
313.15 K, x2 = 0.1978	5.21e-07 ± 7.6e-09	–
313.15 K, x2 = 0.3028	–	834.83 ± 2
313.15 K, x2 = 0.3053	5.47e-07 ± 7.9e-09	–
313.15 K, x2 = 0.3972	5.7e-07 ± 8.2e-09	–
313.15 K, x2 = 0.4249	–	840.83 ± 2
313.15 K, x2 = 0.4929	–	843.99 ± 2
313.15 K, x2 = 0.5024	5.98e-07 ± 8.6e-09	–
313.15 K, x2 = 0.6093	–	849.16 ± 2
313.15 K, x2 = 0.6359	6.36e-07 ± 9e-09	–
313.15 K, x2 = 0.7052	–	853.15 ± 2
313.15 K, x2 = 0.7056	6.57e-07 ± 9.3e-09	–
313.15 K, x2 = 0.796	6.86e-07 ± 9.6e-09	–
313.15 K, x2 = 0.7988	–	856.89 ± 2
313.15 K, x2 = 0.9063	7.23e-07 ± 1e-08	–
313.15 K, x2 = 0.9097	–	860.95 ± 2
313.15 K, x2 = 0.9526	7.4e-07 ± 1e-08	–
313.15 K, x2 = 0.9614	–	862.64 ± 2

CCC(C)Cl (stereo not given) [2-chlorobutane]
[2]
Conditions	kinematic viscosity [m2/s]	mass density [kg/m3]
298.15 K	4.54e-07 ± 6.8e-09	867.37 ± 2
313.15 K	3.96e-07 ± 6.2e-09	850.13 ± 2

CCC(C)Cl (stereo not given) [2-chlorobutane] + C1CCOCC1
[1]
Conditions	kinematic viscosity, 298.15 K [m2/s]	kinematic viscosity, 313.15 K [m2/s]	mass density, 298.15 K [kg/m3]	mass density, 313.15 K [kg/m3]
x2 = 0	4.54e-07 ± 6.8e-09	3.96e-07 ± 6.2e-09	867.37 ± 2	850.13 ± 2
x2 = 0.0525	–	–	868.05 ± 2	–
x2 = 0.0605	4.66e-07 ± 7e-09	4.09e-07 ± 6.3e-09	–	851.11 ± 2
x2 = 0.1035	–	–	869.06 ± 2	–
x2 = 0.1166	4.8e-07 ± 7.2e-09	4.22e-07 ± 6.5e-09	–	852.02 ± 2
x2 = 0.1947	–	–	870.26 ± 2	–
x2 = 0.2131	5.08e-07 ± 7.5e-09	4.45e-07 ± 6.7e-09	–	853.59 ± 2
x2 = 0.3042	–	–	871.8 ± 2	–
x2 = 0.3174	5.42e-07 ± 7.9e-09	4.72e-07 ± 7.1e-09	–	855.4 ± 2
x2 = 0.4088	5.75e-07 ± 8.3e-09	4.97e-07 ± 7.4e-09	–	857 ± 2
x2 = 0.4091	–	–	872.95 ± 2	–
x2 = 0.4994	6.11e-07 ± 8.7e-09	5.25e-07 ± 7.7e-09	–	858.35 ± 2
x2 = 0.5025	–	–	874.28 ± 2	–
x2 = 0.5947	–	–	875.42 ± 2	–
x2 = 0.6122	6.62e-07 ± 9.3e-09	5.66e-07 ± 8.2e-09	–	859.58 ± 2
x2 = 0.7108	7.14e-07 ± 9.9e-09	6.06e-07 ± 8.6e-09	–	861.03 ± 2
x2 = 0.7116	–	–	876.72 ± 2	–
x2 = 0.8059	7.69e-07 ± 1.1e-08	6.49e-07 ± 9.2e-09	–	862.1 ± 2
x2 = 0.809	–	–	877.46 ± 2	–
x2 = 0.8917	–	–	878.36 ± 2	–
x2 = 0.9023	8.34e-07 ± 1.1e-08	6.97e-07 ± 9.7e-09	–	862.9 ± 2
x2 = 0.9549	8.73e-07 ± 1.2e-08	7.28e-07 ± 1e-08	–	863.45 ± 2
x2 = 0.9599	–	–	878.55 ± 2	–

C1CCOCC1 [tetrahydropyran]
[2]
Conditions	kinematic viscosity [m2/s]	mass density [kg/m3]
298.15 K	9.1e-07 ± 1.2e-08	878.81 ± 2
313.15 K	7.57e-07 ± 1e-08	863.67 ± 2

C1CCOCC1 [tetrahydropyran] + CC(C)(C)Cl
[1], x1 = 1
Conditions	kinematic viscosity [m2/s]	mass density [kg/m3]
298.15 K	9.1e-07 ± 1.2e-08	878.81 ± 2
313.15 K	7.57e-07 ± 1e-08	863.67 ± 2

C1CCOCC1 [tetrahydropyran] + CC(C)CCl
[1], x1 = 1
Conditions	kinematic viscosity [m2/s]	mass density [kg/m3]
298.15 K	9.1e-07 ± 1.2e-08	878.81 ± 2
313.15 K	7.57e-07 ± 1e-08	863.67 ± 2

C1CCOCC1 [tetrahydropyran] + CCC(C)Cl
[1], x1 = 1
Conditions	kinematic viscosity [m2/s]	mass density [kg/m3]
298.15 K	9.1e-07 ± 1.2e-08	878.81 ± 2
313.15 K	7.57e-07 ± 1e-08	863.67 ± 2

C1CCOCC1 [tetrahydropyran] + CCCCCl
[1], x1 = 1
Conditions	kinematic viscosity [m2/s]	mass density [kg/m3]
298.15 K	9.1e-07 ± 1.2e-08	878.81 ± 2
313.15 K	7.57e-07 ± 1e-08	863.67 ± 2
